Species: Rattus norvegicus
Test: DrugMatrix - Regimen: Daily Repeat
Assay type: toxicity, organism-based, Sprague-Dawley
Parameters: regimen Daily Repeat, gender Male, age 6-8 weeks
Conditions: in vivo, po, route oral GAVAGE, […]; for ABSOLUTE BASOPHIL / BASOPHIL / ABSOLUTE EOSINOPHIL / ABSOLUTE LYMPHOCYTE / ABSOLUTE MONOCYTE / ABSOLUTE SEGMENTED NEUTROPHIL / EOSINOPHIL / ERYTHROCYTE COUNT / HEMATOCRIT / HEMOGLOBIN / LEUKOCYTE COUNT / LYMPHOCYTE / MEAN CORPUSCULAR HEMOGLOBIN / MEAN CORPUSCULAR HEMOGLOBIN CONCENTRATION / MEAN CORPUSCULAR VOLUME / MONOCYTE / NEUTROPHIL / NUCLEATED RED BLOOD CELLS / PLATELET COUNT: tissue Blood; for ALANINE AMINOTRANSFERASE / ALBUMIN / ALKALINE PHOSPHATASE / ASPARTATE AMINOTRANSFERASE / BLOOD UREA NITROGEN / CARBON DIOXIDE / CHLORIDE / CHOLESTEROL / CREATINE PHOSPHOKINASE / CREATININE / GLUCOSE / LACTATE DEHYDROGENASE / LIPASE / PHOSPHORUS / SODIUM / TOTAL BILIRUBIN / TOTAL PROTEIN / URIC ACID: tissue Plasma
[1] = 0 mg/kg, 72 h, dose level Control, time 3 day
[2] = 0 mg/kg, 120 h, dose level Control, time 5 day
[3] = 12 mg/kg, 72 h, dose level Low, time 3 day
[4] = 12 mg/kg, 120 h, dose level Low, time 5 day
[5] = 24 mg/kg, 72 h, dose level M1, time 3 day
[6] = 24 mg/kg, 120 h, dose level M1, time 5 day

Structure (SMILES): Nc1nc2nc[nH]c2c(=S)[nH]1 [THIOGUANINE]
- ABSOLUTE BASOPHIL [1]: 0 CELLS/uL
- BASOPHIL [1]: 0%
- ABSOLUTE BASOPHIL [2]: 0 CELLS/uL
- BASOPHIL [2]: 0%
- ABSOLUTE BASOPHIL [3]: 0 CELLS/uL
- ABSOLUTE EOSINOPHIL [3]: 0 CELLS/uL
- ABSOLUTE LYMPHOCYTE [3]: 1995.33 CELLS/uL
- ABSOLUTE MONOCYTE [3]: 24.33 CELLS/uL
- ABSOLUTE SEGMENTED NEUTROPHIL [3]: 1147 CELLS/uL
- BASOPHIL [3]: 0%
- EOSINOPHIL [3]: 0%
- ERYTHROCYTE COUNT [3]: 5.75 x10E6/uL
- HEMATOCRIT [3]: 36.93%
- HEMOGLOBIN [3]: 14.27 G/DL
- LEUKOCYTE COUNT [3]: 3.17 x10E3/uL
- LYMPHOCYTE [3]: 50.67%
- MEAN CORPUSCULAR HEMOGLOBIN [3]: 24.87 pg
- MEAN CORPUSCULAR HEMOGLOBIN CONCENTRATION [3]: 38.6 G/DL
- MEAN CORPUSCULAR VOLUME [3]: 64.37 fL
- MONOCYTE [3]: 0.67%
- NEUTROPHIL [3]: 48.67%
- NUCLEATED RED BLOOD CELLS [3]: 0 /100WBC
- PLATELET COUNT [3]: 1202 x10E3/uL
- ALANINE AMINOTRANSFERASE [3]: 56.33 u/L
- ALBUMIN [3]: 4.67 G/DL
- ALKALINE PHOSPHATASE [3]: 631.67 u/L
- ASPARTATE AMINOTRANSFERASE [3]: 116 u/L
- BLOOD UREA NITROGEN [3]: 14.67 mg/dL
- CARBON DIOXIDE [3]: 23 mmol/L
- CHLORIDE [3]: 98.67 MEQ/L
- CHOLESTEROL [3]: 58 mg/dL
- CREATINE PHOSPHOKINASE [3]: 539.33 u/L
- CREATININE [3]: 0.12 mg/dL
- GLUCOSE [3]: 318 mg/dL
- LACTATE DEHYDROGENASE [3]: 172 u/L
- LIPASE [3]: 11.33 u/L
- PHOSPHORUS [3]: 9.8 mg/dL
- SODIUM [3]: 141.63 MEQ/L
- TOTAL BILIRUBIN [3]: 0.17 mg/dL
- TOTAL PROTEIN [3]: 6.73 G/DL
- URIC ACID [3]: 1.43 mg/dL
- ABSOLUTE BASOPHIL [4]: 0 CELLS/uL
- ABSOLUTE EOSINOPHIL [4]: 52 CELLS/uL
- ABSOLUTE LYMPHOCYTE [4]: 778 CELLS/uL
- ABSOLUTE MONOCYTE [4]: 212 CELLS/uL
- ABSOLUTE SEGMENTED NEUTROPHIL [4]: 8758 CELLS/uL
- BASOPHIL [4]: 0%
- EOSINOPHIL [4]: 0.67%
- ERYTHROCYTE COUNT [4]: 4.29 x10E6/uL
- HEMATOCRIT [4]: 27.5%
- HEMOGLOBIN [4]: 11 G/DL
- LEUKOCYTE COUNT [4]: 9.8 x10E3/uL
- LYMPHOCYTE [4]: 8.33%
- MEAN CORPUSCULAR HEMOGLOBIN [4]: 25.97 pg
- MEAN CORPUSCULAR HEMOGLOBIN CONCENTRATION [4]: 40.5 G/DL
- MEAN CORPUSCULAR VOLUME [4]: 64.23 fL
- MONOCYTE [4]: 2%
- NEUTROPHIL [4]: 89%
- NUCLEATED RED BLOOD CELLS [4]: 0 /100WBC
- PLATELET COUNT [4]: 1171.33 x10E3/uL
- ALANINE AMINOTRANSFERASE [4]: 335.67 u/L
- ALBUMIN [4]: 4.13 G/DL
- ALKALINE PHOSPHATASE [4]: 261.67 u/L
- ASPARTATE AMINOTRANSFERASE [4]: 551.67 u/L
- BLOOD UREA NITROGEN [4]: 16.67 mg/dL
- CARBON DIOXIDE [4]: 17.67 mmol/L
- CHLORIDE [4]: 101 MEQ/L
- CHOLESTEROL [4]: 60.33 mg/dL
- CREATINE PHOSPHOKINASE [4]: 1296 u/L
- CREATININE [4]: 0.11 mg/dL
- GLUCOSE [4]: 204.67 mg/dL
- LACTATE DEHYDROGENASE [4]: 625 u/L
- LIPASE [4]: 9.67 u/L
- PHOSPHORUS [4]: 13.37 mg/dL
- SODIUM [4]: 141.53 MEQ/L
- TOTAL BILIRUBIN [4]: 0.23 mg/dL
- TOTAL PROTEIN [4]: 6.1 G/DL
- URIC ACID [4]: 2.83 mg/dL
- ABSOLUTE BASOPHIL [5]: 0 CELLS/uL
- ABSOLUTE EOSINOPHIL [5]: 0 CELLS/uL
- ABSOLUTE MONOCYTE [5]: 0 CELLS/uL
- BASOPHIL [5]: 0%
- EOSINOPHIL [5]: 0%
- MONOCYTE [5]: 0%
- ABSOLUTE BASOPHIL [6]: 0 CELLS/uL
- ABSOLUTE EOSINOPHIL [6]: 46.33 CELLS/uL
- ABSOLUTE LYMPHOCYTE [6]: 7006.33 CELLS/uL
- ABSOLUTE MONOCYTE [6]: 30 CELLS/uL
- ABSOLUTE SEGMENTED NEUTROPHIL [6]: 550.67 CELLS/uL
- BASOPHIL [6]: 0%
- EOSINOPHIL [6]: 0.67%
- ERYTHROCYTE COUNT [6]: 5.49 x10E6/uL
- HEMATOCRIT [6]: 33.33%
- HEMOGLOBIN [6]: 13.27 G/DL
- LEUKOCYTE COUNT [6]: 7.63 x10E3/uL
- LYMPHOCYTE [6]: 91.67%
- MEAN CORPUSCULAR HEMOGLOBIN [6]: 24.17 pg
